{
  "source": "PubChem BioAssay AID1345",
  "about": "(Sanford-Burnham Center for Chemical Genomics, 2008)",
  "note": "Calls of active or inactive are those of the source.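 How the source made its calls: active means survival above 70% of the untreated level at 25 µM; inactive means the rest.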",
  "data": [
    {"tested_on": "CSM14.1 cells, VP16-induced death, ATP luminescence, 48 h", "experiment": "rescue from etoposide-induced cell death, late-stage follow-up, selectivity assay for ER stress death inhibitor project, undifferentiated CSM14.1, ATP content (AID 1345)", "conditions": "at 25 µM; active compounds read high", "values": [
      {"molecule": "COc1ccc(C2CC(=O)C3=C(C2)Nc2ccccc2NC3c2cccc(Oc3ccccc3)c2)cc1OC", "note": "(stereo unspecified)", "viability": "54% (inactive)"},
      {"molecule": "CCOc1cc(C2Nc3ccccc3NC3=C2C(=O)CC(c2ccc(OC)cc2)C3)cc(Cl)c1O", "note": "(stereo unspecified)", "viability": "42% (inactive)"},
      {"molecule": "COc1ccc(C2CC(=O)C3=C(C2)Nc2ccccc2NC3c2cccc(Br)c2)cc1OC", "note": "(stereo unspecified)", "viability": "56% (inactive)"},
      {"molecule": "CCCOc1ccc(C2Nc3ccccc3NC3=C2C(=O)CC(c2ccc(OC)c(OC)c2)C3)cc1", "note": "(stereo unspecified)", "viability": "57% (inactive)"},
      {"molecule": "CC1(C)CC(=O)C2=C(C1)Nc1ccccc1NC2c1ccc(-c2ccccc2)cc1", "note": "(stereo unspecified)", "viability": "53% (inactive)"},
      {"molecule": "COc1ccc(C2CC(=O)C3=C(C2)Nc2ccccc2NC3c2cc(C)ccc2C)cc1", "note": "(stereo unspecified)", "viability": "56% (inactive)"},
      {"molecule": "COc1ccc(C2CC(=O)C3=C(C2)Nc2ccccc2NC3c2cccc(C(F)(F)F)c2)cc1OC", "note": "(stereo unspecified)", "viability": "49% (inactive)"},
      {"molecule": "COc1ccc(C2CC(=O)C3=C(C2)Nc2ccccc2NC3c2ccccc2C(F)(F)F)cc1OC", "note": "(stereo unspecified)", "viability": "50% (inactive)"},
      {"molecule": "CCOc1cccc(C2Nc3ccccc3NC3=C2C(=O)CC(c2ccc(OC)cc2)C3)c1", "note": "(stereo unspecified)", "viability": "50% (inactive)"},
      {"molecule": "O=C1CC(c2ccccc2)CC2=C1C(c1c(F)cccc1Cl)Nc1ccccc1N2", "note": "(stereo unspecified)", "viability": "50% (inactive)"},
      {"molecule": "CSc1ccc(C2Nc3ccccc3NC3=C2C(=O)CC(c2ccccc2)C3)cc1", "note": "(stereo unspecified)", "viability": "52% (inactive)"}
    ]}
  ]
}
